Measured values: US20040234981A1, “Method of determining dna base sequence” (priority 2001, published 2004)
Where “and” joins values, the source holds several entries; their conditions need not be identical. Equal entries are not always repeated.

B1: T7 RNA polymerase F644Y/Δ1: T7 RNA polymerase F644Y deficient in amino acids 172 and 173; plasmid pT7RF644Y/Δ1, FERM BP-7619 (protein, UniProt P00573 1-883, looked up, variant F644Y del172-173)
T7 RNA polymerase: MNTINIAKNDFSDIELAAIPFNTLADHYGERLAREQLALEHESYEMGEARFRKMFERQLKAGEVADNAAAKPLITTLLPKMIARINDWFEEVKAKRGKRPTAFQFLQEIKPEAVAYITIKTTLACLTSADNTTVQAVASAIGRAIEDEARFGRIRDLEAKHFKKNVEEQLNVGHVYKKAFMQVVEADMLSKGLLGGEAWSSWHKEDSIHVGVRCIEMLIESTGMVSLHRQNAGVVGQDSETIELAPEYAEAIATRAGALAGISPMFQPCVVPPKPWTGITGGGYWANGRRPLALVRTHSKKALMRYEDVYMPEVYKAINIAQNTAWKINKKVLAVANVITKWKHCPVEDIPAIEREELPMKPEDIDMNPEALTAWKRAAAAVYRKDKARKSRRISLEFMLEQANKFANHKAIWFPYNMDWRGRVYAVSMFNPQGNDMTKGLLTLAKGKPIGKEGYYWLKIHGANCAGVDKVPFPERIKFIEENHENIMACAKSPLENTWWAEQDSPFCFLAFCFEYAGVQHHGLSYNCSLPLAFDGSCSGIQHFSAMLRDEVGGRAVNLLPSETVQDIYGIVAKKVNEILQADAINGTDNEVVTVTDENTGEISEKVKLGTKALAGQWLAYGVTRSVTKRSVMTLAYGSKEYGFRQQVLEDTIQPAIDSGKGLMFTQPNQAAGYMAKLIWESVSVTVVAAVEAMNWLKSAAKLLAAEVKDKKTGEILRKRCAVHWVTPDGFPVWQEYKKPIQTRLNLMFLGQFRLQPTINTNKDSEIDAHKQESGIAPNFVHSQDGSHLRKTVVWAHEKYGIESFALIHDSFGTIPADAANLFKAVRETMVDTYESCDVLADFYDQFADQLHESQLDKMPALPAKGNLNLRDILESDFAFA
B2: T7 RNA polymerase F644Y/Δ2: T7 RNA polymerase F644Y deficient in amino acids 172 and 173 and 178 through 180; plasmid pT7RF644Y/Δ2 (protein, UniProt P00573 1-883, looked up, variant F644Y del172-173 del178-180)
T7 RNA polymerase: MNTINIAKNDFSDIELAAIPFNTLADHYGERLAREQLALEHESYEMGEARFRKMFERQLKAGEVADNAAAKPLITTLLPKMIARINDWFEEVKAKRGKRPTAFQFLQEIKPEAVAYITIKTTLACLTSADNTTVQAVASAIGRAIEDEARFGRIRDLEAKHFKKNVEEQLNVGHVAFMQVVEADMLSKGLLGGEAWSSWHKEDSIHVGVRCIEMLIESTGMVSLHRQNAGVVGQDSETIELAPEYAEAIATRAGALAGISPMFQPCVVPPKPWTGITGGGYWANGRRPLALVRTHSKKALMRYEDVYMPEVYKAINIAQNTAWKINKKVLAVANVITKWKHCPVEDIPAIEREELPMKPEDIDMNPEALTAWKRAAAAVYRKDKARKSRRISLEFMLEQANKFANHKAIWFPYNMDWRGRVYAVSMFNPQGNDMTKGLLTLAKGKPIGKEGYYWLKIHGANCAGVDKVPFPERIKFIEENHENIMACAKSPLENTWWAEQDSPFCFLAFCFEYAGVQHHGLSYNCSLPLAFDGSCSGIQHFSAMLRDEVGGRAVNLLPSETVQDIYGIVAKKVNEILQADAINGTDNEVVTVTDENTGEISEKVKLGTKALAGQWLAYGVTRSVTKRSVMTLAYGSKEYGFRQQVLEDTIQPAIDSGKGLMFTQPNQAAGYMAKLIWESVSVTVVAAVEAMNWLKSAAKLLAAEVKDKKTGEILRKRCAVHWVTPDGFPVWQEYKKPIQTRLNLMFLGQFRLQPTINTNKDSEIDAHKQESGIAPNFVHSQDGSHLRKTVVWAHEKYGIESFALIHDSFGTIPADAANLFKAVRETMVDTYESCDVLADFYDQFADQLHESQLDKMPALPAKGNLNLRDILESDFAFA

Key:
3′-dATP [1] = assay: Test (2): 3′-dATP added during in vitro transcription with Biotin-labeled CTP, chemoluminescent signal detection; format: biochemical; conditions: 3′-dATP concentration 0.00125 mM, wild form taken as 1, average of three runs
Protocol: (§1) The ability to incorporate 3′-dATP of the Δ type enzyme of purified T7 RNA polymerase was compared to that of the wild type and F644Y mutation.
In this method, 3′-dATP was added during an in vitro transcription reaction and the synthesis level was determined by comparison with synthesis impairment. This will be described in greater detail. The template employed was pBluescriptII (Stratagene) pretreated with the restriction enzyme ScaI (made by Nippon Gene). The reaction conditions were: 40 mM Tris-HCl, pH 8.0, 25 mM NaCl, 8 mM MgCl2, 2 mM spermidine-(HCl)3, and 5 mM DTT. The concentration of ribonucleotides rATP, rCTP, rGTP, and rUTP was 0.5 mM. A 0.1 mM quantity of Biotin-labeled CTP was added and 3′-dATP was added in ranges of 0.00125 mM, 0.0025 mM, and 0.005 mM. A 25 U quantity of enzymes purified as set forth above were added to 10 μL of this solution and the reaction was conducted for 60 min at 37° C. At the conclusion of the reaction, 1 μL of 10× gel loading buffer (1 mM EDTA, 1% SDS, 50% glycerol, and 0.05% BPB) was added. The entire solution was then subjected to electrophoresis in a 1% modified formamide gel. At the conclusion of electrophoresis, northern hybridization was conducted, the synthesized product was transcribed onto a nylon membrane, and signal detection was conducted based on a chemoluminescent substrate according to a protocol of anti-SA-AP antibody (made by Oriental Yeast Co., diluted 20,000-fold) and CDP-Star™ (made by Roche Co.). A Fluoro S Multiimager (BioRad Co.) and Multianalyst, an attached image analyzing software package, were then employed to determine the level of the signal detected.

[2] = system: fluorescent-labeled 3′-deoxynucleotide; assay: Ability to incorporate fluorescent-labeled 3′-deoxynucleotide, fluorescent signal intensity on ABI 377 XL Sequencer; format: biochemical; conditions: for (1) Average signal intensity U: Bodipy(564/570)-3′dUTP; for (1) Average signal intensity U / (1) Average signal intensity C / (1) Average signal intensity G / (1) Average signal intensity A: 100 units of enzyme (50 units for F644Y/Δ1); for (1) Average signal intensity C: Bodipy(581/591)-3′dCTP; for (1) Average signal intensity G: Bodipy(FL)-3′dGTP; for (1) Average signal intensity A: Bodipy(R6G)-3′dATP; for (2) Signal intensity per unit of enzyme G: conversion of (1) per unit of enzyme; for Signal intensity per unit of enzyme A, value in parentheses relative to wild enzyme / Signal intensity per unit of enzyme C, value in parentheses relative to wild enzyme / Signal intensity per unit of enzyme G, value in parentheses relative to wild enzyme / Signal intensity per unit of enzyme U, value in parentheses relative to wild enzyme: relative to a value of 1 for the signal intensity of wild enzyme
Protocol: A comparison was conducted of the ability to incorporate florescent-labeled 3′-deoxynucleotide of Δ-type enzyme of purified T7 RNA polymerase.
This method was conducted in accordance with the method of Sasaki et al. (Sasaki, N., et al. Gene, 222(1): 17-24 (1998)). In greater detail, pBluescriptII DNA was employed as template. A solution obtained by mixing Bodipy(R6G)-3′dATP, Bodipy(FL)-3′dGTP, Bodipy(581/591)-3′dCTP, Bodipy(564/570)-3′dUTP, ATP, GTP, CTP, and UTP in prescribed proportions was employed to conduct reactions differing only with regard to the T7 RNA polymerase employed. The enzymes employed were 100 units of T7 RNA polymerase (wild type) and T7 RNA polymerase F644Y; and 50 units of T7 RNA polymerase F644Y/Δ1. The reaction product was subjected to electrophoresis with an ABI 377 XL Sequencer. The average value of the fluorescent signal intensity was compared for each nucleotide.
Column (2) is a conversion of the value of (1) per unit of enzyme. Numbers shown in parentheses denote values relative to a value of “1” for the signal intensity of wild enzyme. […] Since the ABI 377 XL Sequencer is not a device for quantitative analysis, and operations is conducted on an extremely small amount of samples, large errors are to be expected.

3′-dATP [3] = assay: Test (1): 3′-dATP added during in vitro transcription, amount of RNA synthesized (SYBER Green II gel image); format: biochemical; conditions: 3′-dATP concentration 0.024 mM, wild form of T7 RNA polymerase taken as 1, inverse of RNA synthesis level
Protocol: as §1
In this method, 3′-dATP was added during an in vitro transcription reaction and the synthesis level was determined by comparison with synthesis impairment. This will be described in greater detail. The template employed was pBluescriptII (Stratagene) pretreated with the restriction enzyme ScaI (made by Nippon Gene). The reaction conditions were: 40 mM Tris-HCl, pH 8.0, 25 mM NaCl, 8 mM MgCl2, 2 mM spermidine-(HCl)3, and 5 mM DTT. The concentration of nucleotides ATP, CTP, GTP, and UTP was 0.5 mM. Of these, ATP was replaced with 3′-dATP (Sigma) in ranges of 0.006 mM, 0.008 mM, 0.012 mM, and 0.024 mM. The above purified enzymes were added to 20 μL of this solution and the reaction was conducted for 30 to 60 min at 37° C. At the conclusion of the reaction, 4 μL of 5× gel loading buffer was added (15% Ficoll, 0.1% BPB, 0.1% XC, 0.5% SDS, and 0.1 M EDTA). The entire solution was then subjected to electrophoresis in a 1% modified agarose gel containing formaldehyde. At the conclusion of electrophoresis, 10,000-fold dilution was conducted with SYBER Green II (made by Molecular Probe Co.) and dying was conducted for 20 to 40 min according to a protocol of addition to the product. A Fluoro S Multiimager (BiORad Co.) was then employed to irradiate ultraviolet radiation and pick up the fluorescent image. Multianalyst, an attached image analyzing software package, was used to determine the amount of RNA that had been synthesized from the image picked up. The various values of the results were compared. An increase in ability to incorporate 3′-dATP should result in a drop in the synthesis level. Accordingly, a comparison was made with a control, and the inverse thereof was employed as indicator of how readily 3′-dATP was incorporated.

3′-deoxy nucleotide = conditions: Izawa, M., et al. J. Biol. Chem., 273 (23): 14242 (1998); cited from earlier work

| Molecule | Relative ability to incorporate 3′-dATP (3′-dATP [1]) | (1) Average signal intensity U [2] | (1) Average signal intensity C [2] | (1) Average signal intensity G [2] | (1) Average signal intensity A [2] | (2) Signal intensity per unit of enzyme G [2] | Signal intensity per unit of enzyme A, value in parentheses relative to wild enzyme [2] | Signal intensity per unit of enzyme C, value in parentheses relative to wild enzyme [2] | Signal intensity per unit of enzyme G, value in parentheses relative to wild enzyme [2] | Signal intensity per unit of enzyme U, value in parentheses relative to wild enzyme [2] | Relative ability to incorporate 3′-dATP (3′-dATP [3]) | Relative ability to incorporate 3′-dATP (3′-dATP [1]; listed as F644Y) | Increase in ability to incorporate 3′-deoxy nucleotide relative to the corresponding wild form (3′-deoxy nucleotide) | Relative ability to incorporate 3′-dATP (3′-dATP [1]; listed as F644Y/Δ1) | Relative ability to incorporate 3′-dATP (3′-dATP [1]; listed as T7 RNA polymerase F644Y/Δ 1) |
| --- | --- | --- | --- | --- | --- | --- | --- | --- | --- | --- | --- | --- | --- | --- | --- |
| T7 RNA polymerase (wild type): wild RNA polymerase derived from T7 phage | 1.00 | 120 | 146 | 220 | 67 | 2.2 | (1.0) | (1.0) | (1.0) | (1.0) | 1.00 | – | – | – | – |
| T7 RNA polymerase F644Y: mutant T7 RNA polymerase, tyrosine substituted for phenylalanine at residue 644; plasmid pT7RF644Y | 1.20 ± 0.3 | 134 | 136 | 199 | 74 | 2.0 | (1.1) | (0.9) | (0.9) | (1.1) | 1.45 | 1.20±0.3 and 1.20 | about fivefold | – | – |
| B1 | – | 332 | 317 | 446 | 156 | 8.92 | (2.3) | (2.2) | (4.0) | (2.8) | 15.5 | – | – | 2.30±0.3 and 2.30 | 2.30 ± 0.3 |
| B2 | – | – | – | – | – | – | – | – | – | – | almost the same results | – | – | – | – |
